Earlier results as cited in patent US20250114373A1, “[…] INSERT COMPRISING AN ANTIMICROBIAL AGENT” (OCULAR THERAPEUTIX, INC., priority 2022, published 2025).

Experiments:
Conditions in all cases: values from Proksch, 2009
[1] = tested on: H. influenzae
[2] = tested on: S. epidermidis
[3] = tested on: S. aureus
[4] = tested on: S. pneumoniae

## N[C@@H]1CCCCN(c2c(F)cc3c(=O)c(C(=O)O)cn(C4CC4)c3c2Cl)C1 [Besifloxacin, (R)-7-(3-aminohexahydro-1H-azepin-1-yl)-8-chloro-1-cyclopropyl-6-fluoro-1,4-dihydro-4-oxo-3-quinolinecarboxylic acid]
[1]
  MIC90: (MIC90 of 0.06 μg/mL
[2]
  MIC90: (MIC90 of 0.5 μg/mL
[3]
  MIC90: (MIC90 of 0.25 μg/mL
[4]
  MIC90: (MIC90 of 0.125 μg/mL
